Source: patent publication US4550118A, “Heterocyclic compounds” (Ikeda Mohando Co., Ltd., priority 1982, dated 1985)
Structures can show the parent of a compound that is named as a salt. Where two headings read alike, the source gives them in different places.

What was measured:
[1] = Acute oral toxicity test in mice (LD50, Litchfield-Wilcoxon); conditions: mouse, in vivo
Method: Male dd-mice were divided into groups of 5 and fasted for 8 hours. The test compounds were administered orally to the mice weighing from 19.7 g. to 22.0 g. The mice were observed survival or death as well as the general symptoms over 7 days after the administration of the compounds. The value of LD50 for each compound was estimated from the mortality observed on the basis of the Litchfield-Wilcoxon method.
In a similar test, the test compound of example 27, 35, 66, 84, 97, 104, 118, 125 or 129 was administered orally to the mice at a dose of 1500 mg/kg.

[2] = tested on: acid secretion in pylorus-ligated rats; test: Anti-secretory effect (histamine-stimulated gastric acid secretion) in pylorus-ligated rat; type: in vivo, male wistar rats; conditions: Rattus norvegicus, sc, 3 h; 2 mg/kg s.c., 30 min before histamine 3 mg/kg s.c.; n=5; * significant at 5%, ** at 1% vs control; read-out: inhibitory effect of acid secretion (%) at 2 mg/kg s.c.
Method: (A) Anti-secretory Effect in Pylorus-ligated Rat
After 24 hr fasting, male wistar rats weighing about 160 g were anesthetized by intraperitoreal injection of urethans 1.2 g/kg. Then, after ligating the pylorus and the esophagus, the proventriculus was incised and a double polyethylene cannula was inserted. The gastric wall was washed out with 5 ml of physiological saline every 30 minutes and the amount of acid contained in the saline after washing was measured by titration. After measuring the basal acid secretion of the pylorus ligated rats three times, the compounds of the invention, 2 mg/kg, were administered subcutaneously and, 30 minutes thereafter, histamine 3 mg/kg, was administered also subcutaneously. Then, the amounts of acid secretion were measured for 3 hours. […] Then, an inhibition rate was calculated in accordance with the following formula, in relation to the increment values measured for the control group. [formula]
One group included five examples.

[3] = target: T1, histamine H2 receptor in atria (Cavia porcellus, UniProt P47747); test: Histamine H2 receptor inhibition effect by isolated guinea pig right atrium preparation (negative chronotropic effect); type: cell-based, Male Hartley Guinea Pig; conditions: 5×10^-6 mol sample 3 minutes prior to histamine, mean of five, read-out: inhibitory effect of histamine H2 receptor in atria (pA2 value) (converted)
T1 construct: right atrium was isolated; from tissue; host or cells: isolated right atrium of male Hartley guinea pig
T1 sequence (P47747 whole entry): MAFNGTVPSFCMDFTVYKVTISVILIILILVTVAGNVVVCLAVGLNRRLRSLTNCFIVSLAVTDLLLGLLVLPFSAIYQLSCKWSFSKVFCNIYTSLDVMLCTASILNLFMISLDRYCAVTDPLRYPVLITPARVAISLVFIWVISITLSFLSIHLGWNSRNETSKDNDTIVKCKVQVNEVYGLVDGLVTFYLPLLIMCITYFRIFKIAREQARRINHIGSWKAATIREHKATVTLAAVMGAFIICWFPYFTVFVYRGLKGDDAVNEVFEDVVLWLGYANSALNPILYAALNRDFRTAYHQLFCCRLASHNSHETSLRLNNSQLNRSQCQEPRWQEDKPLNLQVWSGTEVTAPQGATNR
Method: (B) Measurement of Histamine H2 Receptor Inhibition Effect by Isolated Guinea Pig Right Atrium Preparation
Male Hartley Guinea Pig weighing around 400 g was sacrified by decapitation, and right atrium was isolated. The right atrium was suspended in an organ bath (50 ml) containing modified Ringer solution. Under application of a tensile load of 1 g, the heart rate was recorded by means of a polygraph. Histamine was applied cumulatively from 1×10^-7 mol to 3×10^-4 mol and a cumulative dosage response curve was drawn. Then, 5×10^-6 mol of the sample was administered 3 minutes prios to histamine application. The negative logarithmic value (pA2) of the specimen molarity required for shifting the curve to the right to double concentration was calculated.

[4] = tested on: acid secretion in pylorus-ligated rats; test: Anti-secretory effect (histamine-stimulated gastric acid secretion) in pylorus-ligated rat; type: in vivo, male wistar rats; conditions: for ED50: read-out: ED 50 (acid secretion inhibition); for acid secretion inhibition: 5 rats
[5] = similar test, oral dose of 1500 mg/kg

SMILES | Kb [3] [nM] | LD50 at 168 h [1, 5] [mg/kg] | inhibition in vivo at 2 mg/kg [2] [%] | other results
NC(=O)N=C(N)CCCOc1ccc2[nH]c(CN3CCCCC3)nc2c1 [Example 118, N-carbamoyl-4-[5-<2-(1-piperidinomethyl)benzimidazolyl>oxy]butyroamidine.3hydrochloride] |  | > 1500 |  | 
O=c1[nH]c(NCCCOc2ccc3[nH]c(CN4CCCC4)nc3c2)nnc1Cc1cccnc1 [Example 84] | 2190 | > 1500 | 75 | 
CNC(=C[N+](=O)[O-])NCCCOc1ccc2[nH]c(CN(C)C)nc2c1 [Example 27, 1-nitro-2-methylamino-2-[3-<5-(2-dimethylaminomethylbenzimidazolyl)oxy>propylamino]ethylene] | 16200 | > 1500 | 73 | 
CN(C)Cc1cccc(Cc2cnc(NCCCOc3ccc4[nH]c(CN(C)C)nc4c3)[nH]c2=O)c1 [Example 70, 2-[3-<5-(2-dimethylaminomethylbenzimidazolyl)oxy>propylamino]-5-(3-dimethylaminomethylbenzyl)-4-pyrimidone] | 2450 |  | 102 | LD50 at 168 h ([1]; oral, groups of 5, 7 days observation): 2800 mg/kg; effective ratio ([4]; ED50 relative to cimetidine = 1.0): 25.2; ED50 ([4]; Rattus norvegicus, sc, pylorus-ligated rats, 95% confidence limit printed on following lines): 0.11 µmol/kg; acid secretion inhibition ([4]; Table 2, dosage 0.067 μmol/kg): 35%; acid secretion inhibition ([4]; Table 2, dosage 0.204 μmol/kg): 71%; acid secretion inhibition ([4]; Table 2, dosage 0.613 μmol/kg): 93%
CN(C)Cc1nc2cc(OCCCNc3ncc(Cc4cccnc4)c(=O)[nH]3)ccc2[nH]1 [Example 66, 2-[3-<5-(2-dimethylaminomethylbenzimidazolyl)oxy>propylamino]-5-(3-pyridylmethyl)-4-pyrimidone] | 1950 | > 1500 | 100 | 
CNC(=NC#N)NCCSCc1ccc2[nH]c(CN(C)C)nc2c1 [Example 35, N-cyano-N'-methyl-N"-[2-<5-(2-dimethylaminomethylbenzimidazolyl)methylthio>ethyl]guanidine] | 646 | > 1500 | 64 | 
CN/C(=N/CCSCc1nc[nH]c1C)NC#N [Cimetidine, cimetidine, reference compound] |  |  |  | inhibition in vivo at 2 mg/kg ([4]; Rattus norvegicus, sc, 3 h, read-out: inhibitory effect of acid secretion (%) at 2 mg/kg s.c.): 63%; ED50 ([4]; Rattus norvegicus, sc): 2.77 µmol/kg; acid secretion inhibition ([4]; Table 2, dosage 2.0 μmol/kg): 37%; acid secretion inhibition ([4]; Table 2, dosage 5.9 μmol/kg): 75%; acid secretion inhibition ([4]; Table 2, dosage 17.8 μmol/kg): 83%
CN(C)Cc1nc2cc(CSCCNC3=NS(=O)(=O)N=C3N)ccc2[nH]1 [Example 104, 3-[2-<5-(2-dimethylaminomethylbenzimidazolyl)methylthio>ethyl]amino-4-amino-1,2,5-thiadiazole-1.1-dioxide] | 1950 | > 1500 | 96 | 
O=c1[nH]c(NCCCOc2ccc3[nH]c(CN4CCCCC4)nc3c2)nnc1Cc1cccnc1 [Example 85, 3-{3-[5-<2-(1-piperidinomethyl)benzimidazolyl>oxy]propylamino}-6-(3-pyridylmethyl)-1,2,4-triazine-5-one] | 1950 |  | 46 | 
CNC(=C[N+](=O)[O-])NCCCOc1ccc2[nH]c(CN3CCCC3)nc2c1 [Example 28, 1-nitro-2-methylamino-2-[3-<5-(2-(1-pyrrolidinomethyl)benzimidazolyl)oxy>propylamino]ethylene] | 2450 |  | 64 | 
CN(C)Cc1nc2cc(CSCCC(N)=NC#N)ccc2[nH]1 [Example 125, N-cyano-3-[5-(2-dimethylaminomethylbenzimidazolyl)methylthio]propionamidine] |  | > 1500 |  | 
CNC(=NC#N)NCCCOc1ccc2[nH]c(CN3CCCCC3)nc2c1 [Example 5, N-cyano-N'-methyl-N"-{3-[5-<2-(1-piperidinomethyl)benzimidazolyl>oxy]propyl}guanidine] | 1380 |  | 65 | 
O=c1ccnc(NCCCOc2ccc3[nH]c(CN4CCCCC4)nc3c2)[nH]1 [Example 59, 2-[3-<5-(2-(1-piperidinomethyl)benzimidazolyl)oxy>propylamino]-4-pyrimidone] | 891 |  | 74 | 
CNC(=C[N+](=O)[O-])NCCCCOc1ccc2[nH]c(CN3CCCCC3)nc2c1 [Example 30, 1-nitro-2-methylamino-2-{4-[5-<2-(1-piperidinomethyl)benzimidazolyl>oxy]butylamino}ethylene] | 1380 |  | 78 | 
CN(C)Cc1nc2cc(CSCCC(N)=NC(N)=O)ccc2[nH]1 [Example 129, N-carbamoyl-3-[5-(2-dimethylaminomethylbenzimidazolyl)methylthio]propionamidine] | 759 | > 1500 | 72 | 

Now from value to compound, other results behind:

Kb [3] [nM] | SMILES | LD50 at 168 h [1, 5] [mg/kg] | inhibition in vivo at 2 mg/kg [2] [%] | other results
2950 | Nc1n[s+]([O-])nc1NCCCOc1ccc2[nH]c(CN3CCCCC3)nc2c1 (stereo not shown) [Example 101] |  | 97 | 
851 | CN(C)Cc1nc2cc(CSCCNc3nccc(=O)[nH]3)ccc2[nH]1 [Example 72, 2-[2-<5-(2-dimethyaminomethylbenzimidazolyl)methylthio>ethylamino]-4-pyrimidone] |  | 53 | 
1170 | CN(C)Cc1nc2cc(CSCCNC(N)=NS(=O)(=O)c3ccccc3)ccc2[nH]1 [Example 46, N-benzenesulfonyl-N'-[2-<5-(2-dimethylaminomethylbenzimidazolyl)methylthio>ethyl]guanidine] |  | 72 | 
3550 | CN(C)Cc1nc2cc(OCCCNc3ncc(CN(C)C)c(=O)[nH]3)ccc2[nH]1 [Example 60, 5-dimethylaminomethyl-[3-<5-(2-dimethylaminomethylbenzimidazolyl)oxy>propylamino]-4-pyrimidone] |  | 56 | 
537 | CNc1n[s+]([O-])nc1NCCSCc1ccc2[nH]c(CN(C)C)nc2c1 (stereo not shown) [Example 106, 3-[2-<5-(2-dimethylaminomethylbenzimidazolyl)methylthio>ethyl]amino-4-methylamino-1,2,5-thiadiazole-1-oxide] |  | 89 | 
603 | CN(C)Cc1nc2cc(CSCCNc3nnc(Cc4cccnc4)c(=O)[nH]3)ccc2[nH]1 [Example 87, 3-[2-<5-(2-dimethylaminomethylbenzimidazolyl)methylthio>ethylamino]-6-(3-pyridylmethyl)-1,2,4-triazine-5-one] |  | 84 | 
1450 | CCNc1n[s+]([O-])nc1NCCSCc1ccc2[nH]c(CN(C)C)nc2c1 (stereo not shown) [Example 108, 3-[2-<5-(2-dimethylaminomethylbenzimidazolyl)methylthio>ethyl]amino-4-ethylamino-1,2,5-thiadiazole-1-oxide] |  | 77 | 
631 | CN(C)Cc1nc2cc(OCCCNc3ncc(Cc4ccc5c(c4)OCO5)c(=O)[nH]3)ccc2[nH]1 [Example 62, 5-[5-(1,3-benzodioxolyl)methyl]-2-[3-<5-(2-dimethylaminomethylbenzimidazolyl)oxy>propylamino]-4-pyrimidone] |  | 84 | 
2190 | CCNc1n[s+]([O-])nc1NCCCOc1ccc2[nH]c(CN(C)C)nc2c1 (stereo not shown) [Example 102, 3-[3-<5-(2-dimethylaminomethylbensimidazolyl)oxi>propyl]amino-4-ethylamino-1,2,5-thiadiazol-1-oxide] |  | 68 | 
